Results: patent US5492892A, “Endothelin antagonists” (priority 1994, dated 1996)
Bridge positions count the residues as written; N and C are the ends. Ends that are not written are not given here.

Columns and labels:
[1] = biological target: endothelin receptors of the isolated, perfused guinea pig lung
[2] = literature reports; cited from earlier work
vascular beds = conditions: a number of vascular beds; Anggard et al.; cited from earlier work
[3] = system: isolated, perfused guinea pig lung; assay: Vasoconstrictor (agonist) activity, isolated perfused lung preparation, pulmonary artery pressure
Procedure: Isolated, Perfused Guinea Pig Lung: Another procedure for determining the vasoconstrictor action of the endothelin-active peptides and the blocking action of endothelin antagonists utilizes isolated, perfused guinea pig lung as described in more detail in Example 4, infra.
(§1) The vasoconstrictor activity of Et-1 or Et-3 alone, or in the presence of antagonist, was determined using an isolated, perfused lung preparation (Horgan, M. J., et al. J. Appl. Phsysiol., 63, 93-104 (1987)). Briefly, Hartley guinea pigs (400-500 g) of either sex were anesthetized with 50 mg/kg pentobarbital sodium. Following a tracheotomy, the thorax was opened, the lung and heart excised and the pulmonary artery cannulated. A wide cannula was placed in the left atrium. Perfusion was then started, within 5 min. of opening the thorax. The perfusion flow was set at 28 ml/min. When there was no visible sign of blood in the pulmonary venous effluent, recirculation of the perfusate was started, and pulmonary artery pressure was monitored. Endothelin activity was measured in an accumulative dose-dependent manner for agonist activity by addition of the peptides to a recirculating 300 ml bath. To assess antagonist activity, dose response curves with endothelin were done in the constant presence of antagonist.

[4] = system: Et-1 in Perfused Guinea Pig Lung; assay: Antagonist activity against Et-1 in perfused guinea pig lung; conditions: for Pressure Increase Inhibition / Pressure Increase Ppa With Antagonist: antagonist 10^-7 M; for Pressure Increase Ppa With Antagonist: preperfused 5 min then coperfused
Procedure: as §1
The response with lungs preperfused, for 5 min. with [drawing 44] at a concentration of 10^-7 M before coperfusion with Et-1 was compared with the response determined on lungs perfused only with Et-1. (Results in both Tables 1 and 2 are based on the average of 4-7 determinations for each result).

[5] = system: Et-3 in perfused guinea pig lung; assay: Specificity: lung preparations perfused with Et-3, with and without antagonist
Procedure: as §1
(§2) Specificity of [drawing 47] is illustrated in Table 2 which presents pressure increase data in similar lung preparations perfused with Et-3 and with other vasoconstrictor substances (alpha-thrombin and norepinephrine). As for the results shown in Table 1, pressure increase was determined on lung preparations with and without a 5 minute preperfusion step with 10^-7 M [drawing 48]

[6] = system: alpha-thrombin in perfused guinea pig lung; assay: Specificity: lung preparations perfused with alpha-thrombin, with and without antagonist; conditions: α-Thrombin (10^-8 M); 5 minute preperfusion with 10^-7 M antagonist
Procedure: as §1, §2

[7] = system: norepinephrine in perfused guinea pig lung; assay: Specificity: lung preparations perfused with norepinephrine, with and without antagonist; conditions: Norepinephrine (10^-7 M); 5 minute preperfusion with 10^-7 M antagonist
Procedure: as §1, §2

Et-1 receptor = conditions: competitive and dose dependent manner; Fabregat et al.; cited from earlier work
endothelin responses = conditions: Fabregat et al.; cited from earlier work
[8] = biological target: endothelin receptors of the isolated, perfused guinea pig lung; remark: listed apart in the source
[9] = isolated, perfused guinea pig lung

[Dpr^1 -Asp^15 ]Et-1, sequence (peptide): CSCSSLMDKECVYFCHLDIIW

[Dpr^1 -Asp^15 ]Et-1 (peptide)
Pressure Increase Inhibition (%) of the Et-1 response, lung preperfused and coperfused with 10^-7 M antagonist [1]: 95%

[Ala^5 ]Et-1: known Et-1 analog (Nakajima et al.)
endothelin activity [2]: show appreciable endothelin activity

[Ala^4 ]Et-1: known Et-1 analog (Nakajima et al.) (CSCASLMDKECVYFCHLDIIW; ends and bridges not checked; cysteine pairing not given here; UniProt P05305 53-73, looked up, variant S4A)
endothelin activity [2]: show appreciable endothelin activity

[Tyr^21 ]Et-1: known Et-1 analog (Nakajima et al.) (CSCSSLMDKECVYFCHLDIIY; ends and bridges not checked; cysteine pairing not given here; UniProt P05305 53-73, looked up, variant W21Y)
endothelin activity [2]: show appreciable endothelin activity

[Asn^8 ]Et-1: known Et-1 analog (Nakajima et al.) (CSCSSLMNKECVYFCHLDIIW; ends and bridges not checked; cysteine pairing not given here; UniProt P05305 53-73, looked up, variant D8N)
endothelin activity [2]: show appreciable endothelin activity

Et-2: endothelin isopeptide (CSCSSWLDKECVYFCHLDIIW; ends and bridges not checked; cysteine pairing not given here; UniProt P20800 49-69, looked up)
apparent potency order of vasoconstriction (vascular beds): Et-2>Et-1>Et-3

[Ala^3,11 ]Et-1: known Et-1 analog (Randall et al.) (CSASSLMDKEAVYFCHLDIIW; ends and bridges not checked; cysteine pairing not given here; UniProt P05305 53-73, looked up, variant C3A C11A)
endothelin activity [2]: shows endothelin activity

[Leu^9 ]Et-1: known Et-1 analog (Nakajima et al.) (CSCSSLMDLECVYFCHLDIIW; ends and bridges not checked; cysteine pairing not given here; UniProt P05305 53-73, looked up, variant K9L)
endothelin activity [2]: show appreciable endothelin activity

[Dpr^1 -Asp^15 ]Et-1
agonist activity (increase in Ppa) ([3]; doses as high as 1×10^-6 M): essentially no agonist activity
Pressure Increase Inhibition ([4]; Et-1 2 × 10^-10 M): 75%
Pressure Increase Ppa With Antagonist ([4]; Et-1 2 × 10^-10 M): 0.6 cm H2 O
Pressure Increase Inhibition ([4]; Et-1 10^-9 M): 65%
Pressure Increase Ppa With Antagonist ([4]; Et-1 10^-9 M): 2.1 cm H2 O
Pressure Increase Inhibition ([4]; Et-1 10^-10 M): 95%
Pressure Increase Ppa With Antagonist ([4]; Et-1 10^-10 M): 0.06 cm H2 O
blocking activity at higher doses of the analog ([4]; doses higher than 10^-7 M): did not substantially increase this blocking activity
Ppa With antagonist ([5]; Et-3 (10^-9 M), 5 minute preperfusion with 10^-7 M antagonist): 5.8 cm H2 O
antagonist activity against vasoconstricting substances other than Et-1 ([5]; lung preparations treated with Et-3, α-thrombin or norepinephrine): no antagonist activity
Ppa With antagonist [6]: 8.5 cm H2 O
Ppa With antagonist [7]: 1.3 cm H2 O

[D-Arg^1, D-Phe^5, D-Trp^7,9, Leu^11 ] substance P
inhibition of ^125 I-labelled Et-1 binding to an Et-1 receptor (Et-1 receptor): able to inhibit
blocking of endothelin responses (endothelin responses): blocks certain endothelin responses

CC[C@H](C)[C@H](NC(=O)[C@H](CC(=O)O)NC(=O)[C@H](CC(C)C)NC(=O)[C@H](Cc1c[nH]cn1)NC(=O)[C@@H]1CSSC[C@H](N)C(=O)N[C@@H](CO)C(=O)N[C@H]2CSSC[C@H](NC(=O)[C@H](CCC(=O)O)NC(=O)[C@H](CCCCN)NC(=O)[C@H](CC(=O)O)NC(=O)[C@H](CCSC)NC(=O)[C@H](CC(C)C)NC(=O)[C@H](CO)NC(=O)[C@H](CO)NC2=O)C(=O)N[C@@H](C(C)C)C(=O)N[C@@H](Cc2ccc(O)cc2)C(=O)N[C@@H](Cc2ccccc2)C(=O)N1)C(=O)N[C@H](C(=O)N[C@@H](Cc1c[nH]c2ccccc12)C(=O)O)[C@@H](C)CC [Et-1]
Pressure Increase Ppa Without Antagonist ([3]; Et-1 Conc. 2 × 10^-10 M): 2.3 cm H2 O
Pressure Increase Ppa Without Antagonist ([3]; Et-1 Conc. 10^-9 M): 6.1 cm H2 O
Pressure Increase Ppa Without Antagonist ([3]; Et-1 Conc. 10^-10 M): 1.2 cm H2 O
concentration at which Et-1 is active (dose-dependent increase in pulmonary artery pressure, Ppa) [3, 9]: 10^-10 M
concentration giving a maximal response (increase in Ppa) [3, 9]: 10^-8 M
apparent potency order of vasoconstriction (vascular beds): Et-2>Et-1>Et-3

[Phe^21 ]Et-1: known Et-1 analog (Nakajima et al.) (CSCSSLMDKECVYFCHLDIIF; ends and bridges not checked; cysteine pairing not given here; UniProt P05305 53-73, looked up, variant W21F)
endothelin activity [2]: show appreciable endothelin activity

NC[C@H](O)c1ccc(O)c(O)c1 [Norepinephrine]
Ppa Without antagonist ([3]; Norepinephrine (10^-7 M)): 1.3 cm H2 O

[Gly^6 ]Et-1: known Et-1 analog (Nakajima et al.) (CSCSSGMDKECVYFCHLDIIW; ends and bridges not checked; cysteine pairing not given here; UniProt P05305 53-73, looked up, variant L6G)
endothelin activity [2]: show appreciable endothelin activity

[Phe^13 ]Et-1: known Et-1 analog (Nakajima et al.) (CSCSSLMDKECVFFCHLDIIW; ends and bridges not checked; cysteine pairing not given here; UniProt P05305 53-73, looked up, variant Y13F)
endothelin activity [2]: show appreciable endothelin activity

CTCFTYKDKECVYYCHLDIIW (disulfide 1-15, 3-11) [Endothelin 3]
Ppa (cm H2O), isolated perfused guinea pig lung, Et-3 at 10^-9 M without antagonist [8]: 3.8 cm H2O
